{"source": "patent US20220211605A1", "about": "“AGENT FOR PROTECTION AGAINST ATMOSPHERIC POLLUTANTS AND COMPOSITION FOR PROTECTION AGAINST ATMOSPHERIC POLLUTANTS” (SHOWA DENKO K.K., priority 2019, published 2022)", "key": {"NRF2 gene": {"system": "NRF2 gene", "test": "Effect of promoting expression of NRF2 gene (quantitative real-time PCR, standardized to GAPDH) in NHEK exposed to atmospheric dust", "assay_type": "cell-based, human", "conditions": "sample 10 μM for 24 hours, then atmospheric dust added 500 μg/mL for 48 hours, relative to control without atmospheric dust = 1", "method": "The effect of Na tocopherol phosphate on promoting the expression of an NRF2 gene in normal human epidermal keratinocytes (NHEK, manufactured by KURABO INDUSTRIES LTD.) was measured under the following conditions.\nThe NHEK cells were seeded in a HuMedia KG2 medium manufactured by KURABO INDUSTRIES LTD. at the seeding density of 10000 cells/cm^2, and cultured for 24 hours under the conditions of 37° C. and 5% CO2. Next, a sample, in which Na tocopherol phosphate or tocopherol acetate was dissolved in an aqueous solution of 0.05% (V/V) ethanol, was added to the culture medium so that the final concentration of Na tocopherol phosphate or tocopherol acetate was 10 μM, and culturing was performed for 24 hours. Furthermore, one obtained by adding 5 μL of the aqueous solution of 0.05% (V/V) ethanol to the culture medium and culturing for 24 hours was also prepared. […] Using this cDNA as a template, the expression level of the NRF2 gene was quantitatively determined by quantitative real-time PCR using a primer specific to the NRF2 gene (Perfect Real Time Primer, manufactured by Takara Bio Inc.). As an internal standard gene, the expression level of GAPDH was quantitatively determined (primer used: Perfect Real Time Primer, manufactured by Takara Bio Inc.), and the expression level of the NRF2 gene was standardized based on the expression level of GAPDH. […]"}, "[1]": {"system": "cell line derived from Lewis lung carcinoma (LLC)", "test": "Effect of suppressing proliferation of cancer cells (WST-8) exposed to atmospheric dust", "assay_type": "cell-based", "conditions": "sample 10 μM for 24 hours, then atmospheric dust (NIST 1648a) added 500 μg/mL for 48 hours, absorbance 450 nm relative to control without atmospheric dust = 1", "method": "The effect of Na tocopherol phosphate on suppressing the proliferation of cancer cells in a cell line derived from Lewis lung carcinoma (LLC, JCRB Cell Bank) was measured under the following conditions.\nThe LLC cells were seeded at the seeding density of 50000 cells/cm^2 in a culture medium in which a Ham F10 medium and an L15 medium (both manufactured by Sigma-Aldrich) were mixed at the ratio of 3:7 (volume ratio), and cultured for 24 hours under the conditions of 37° C. and 5% CO2. Next, a sample, in which Na tocopherol phosphate or tocopherol acetate was dissolved in an aqueous solution of 0.05% (V/V) ethanol, was added to the culture medium so that the final concentration of Na tocopherol phosphate or tocopherol acetate was 10 μM, and culturing was performed for 24 hours. Furthermore, one obtained by adding 1 μL of the aqueous solution of 0.05% (VN) ethanol to the culture medium and culturing for 24 hours was also prepared. […] Thereafter, the culture medium was replaced with a medium containing 10% (VN) of WST-8 of Nacalai Tesque Inc., and after further culturing for 3 hours, the absorbance at the wavelength of 450 nm was measured with a microplate reader i-Control (manufactured by Tecan Group Ltd.). […]"}, "[2]": {"system": "normal human epidermal keratinocytes (NHEK)", "test": "Effect of suppressing ROS production (dichlorofluorescein diacetate ROS assay kit) in NHEK exposed to atmospheric dust", "assay_type": "cell-based", "conditions": "sample 10 μM for 24 hours, then atmospheric dust (NIST 1648a) added 500 μg/mL for 48 hours, fluorescence relative to control without atmospheric dust = 1", "method": "The effect of Na tocopherol phosphate on suppressing ROS production in normal human epidermal keratinocytes (NHEK, manufactured by KURABO INDUSTRIES LTD.) was measured under the following conditions.\nThe NHEK cells were seeded in a HuMedia KG2 medium manufactured by KURABO INDUSTRIES LTD. at the seeding density of 10000 cells/cm^2, and cultured for 24 hours under the conditions of 37° C. and 5% CO2. Next, a sample, in which Na tocopherol phosphate or tocopherol acetate was dissolved in an aqueous solution of 0.05% (V/V) ethanol, was added to the culture medium so that the final concentration of Na tocopherol phosphate or tocopherol acetate was 10 μM, and culturing was performed for 24 hours under the conditions of 37° C. and 5% CO2. Furthermore, one obtained by adding 1 μL of the aqueous solution of 0.05% (V/V) ethanol to the culture medium and culturing for 24 hours was also prepared. […] Thereafter, the ROS production amount was measured using a ROS assay kit (manufactured by OZ BIOSCIENCES). […] After washing with PBS again, 100 μL of PBS was added, and the fluorescence intensity at an excitation wavelength of 485 nm/an absorption wavelength of 535 nm was measured with a microplate reader i-Control (manufactured by Tecan Group Ltd.). […]"}, "[3]": {"system": "cell line derived from Lewis lung carcinoma (LLC)", "test": "Effect of suppressing invasion of cancer cells (CytoSelect invasion assay kit) exposed to atmospheric dust", "assay_type": "cell-based", "conditions": "sample 10 μM for 24 hours, then atmospheric dust (NIST 1648a) added 500 μg/mL for 6 hours + 18 hours, fluorescence relative to control without atmospheric dust = 1", "method": "The effect of Na tocopherol phosphate on suppressing the invasion of cells in a cell line derived from Lewis lung carcinoma (LLC, JCRB Cell Bank) was measured under the following conditions. A CytoSelect invasion assay kit manufactured by Cell Biolabs, Inc. was used for a test.\nThe LLC cells were seeded in a chamber plate for invasion tests attached to the above-mentioned invasion assay kit so that the concentration was 100000 cells/mL using a culture medium in which a Ham F10 medium and an L15 medium (both manufactured by Sigma-Aldrich) were mixed at the ratio of 3:7 (volume ratio), and cultured for 24 hours under the conditions of 37° C. and 5% CO2. Next, a sample, in which Na tocopherol phosphate or tocopherol acetate was dissolved in an aqueous solution of 0.05% (V/V) ethanol, was added to the culture medium so that the final concentration of Na tocopherol phosphate or tocopherol acetate was 10 μM, and culturing was further performed for 24 hours under the conditions of 37° C. and 5% CO2. […] Thereafter, the cells were stained using the above-mentioned invasion assay kit, and the fluorescence intensity at an excitation wavelength of 480 nm/an absorption wavelength of 570 nm was measured with a microplate reader i-Control (manufactured by Tecan Group Ltd.). […]"}}, "data": [{"smiles": "CC(=O)Oc1c(C)c(C)c2c(c1C)CCC(C)(CCC[C@H](C)CCC[C@H](C)CCCC(C)C)O2", "note": "(stereo partly shown) [Tocopherol acetate, tocopherol acetate]", "values": [{"measurement": "Relative gene expression level NRF2", "setting": "NRF2 gene", "result": 0.71}, {"measurement": "Relative cell proliferation amount", "setting": "[1]", "result": 3.98}, {"measurement": "Relative ROS production amount", "setting": "[2]", "result": 1.67}, {"measurement": "Relative cell invasion", "setting": "[3]", "result": 2.08}]}]}
